Measured values: PMC6165478, “Wine and Olive Oil Phenolic Compounds Interaction in Humans” (Diseases, 2018)
Where “and” joins values, the source holds several entries; their conditions need not be identical. Identical values can stand only once. Marks after values point to notes of the source that are not given here.

Legend:
[1] = Urinary recovery of RESV, its isomers and dihydro-RESV (GC-MS after enzymatic hydrolysis), crossover clinical trial; conditions: for RESV urinary recovery from 0 to 6 h: urine 0-6 h, n = 12, mean ± SD
Procedure: The study consisted of a crossover randomized clinical trial with three different interventions. The interventions consisted of a single administration of 25 mL of EVOO, 150 mL of RW, or the combination of both 25 mL of EVOO and 150 mL of RW. Treatment quantities were equivalent to normal dietary doses of a typical MD. A total of twelve healthy subjects (50% women, 34.0 ± 10.5, BMI = 22.0 ± 3.3 kg/m^2) participated in the study. The study was explained to participants through verbal and written instructions, and written informed consent was obtained before participation. Volunteers received each treatment in a randomized manner. The study included three experimental sessions in which each intervention was administered under fasting conditions. Each experimental session was preceded by a two-day washout period. The total duration of the study was nine days.
On the day of the intervention, subjects consumed one of the three interventions within a period of 5–10 min. Urine was collected in separate fractions, at baseline (−2–0 h), to assess dietary compliance and during 6 h after each dietary intervention (0–6 h). The amount of urine in each fraction was measured, acidified with 6 M HCl, and stored at −20 °C until analysis. The study protocol was approved by the Ethics Committee of Parc de Salut Mar (CEIC-PSMAR) (Spain), and the clinical trial was registered at the International Standard Randomized Controlled Trial Number (NCT03614520).
Urine was subjected to a hydrolysis procedure previously described by our working group. Aliquots of 1 mL of diluted urine (1:10 in water) were spiked with 10 µL of IS (containing 10 µg/mL of diethylstilbestrol), 100 µL of sodium metabisulfite, 1 mL acetate buffer 0.1 M pH 5.2, and 25 µL of β-glucuronidase. The samples were incubated at 37 °C overnight. After incubation, 1 mL of NaOH was added to neutralize the hydrolysis process. For the extraction of the phenolic compounds, 0.5 mL of a saturated solution of NaCl and 4 mL of acetonitrile-ethyl acetate mixture (1:4 v/v) were added. Samples were mixed for 30 min, centrifuged for 5 min at 300 g, and the organic phase was extracted and evaporated until dry. After 1 h in an oven at 50 °C, the residue was derivatized with 75 µL of MSTFA: NH4I:2-mercaptoethanol reaction mixture for 30 min at 60 °C and 2 µL was injected into the gas chromatograph.
For the preparation of the calibration curves, 1 mL of diluted urine (1:10 in water) was spiked with an increasing concentration of c- and t-RESV and dihydro-RESV (10–200 ng/mL), and subjected to the extraction procedure exactly in the same way as the samples.
The extracted samples were analyzed using an Agilent Technologies (Santa Clara, CA, USA) 6890 N gas chromatograph coupled to a 5973 mass-selective detector. For chromatographic separation, a 5% phenyl-dimethyl-polysiloxane Zebron™ (Torrance, CA, USA) fused-silica capillary column (15 m × 0.25 mm i.d., 0.25 µm film thickness) was used. The split injection mode using helium as a carrier gas (0.9 mL/min) was applied. The temperatures of the injector and transfer line were set at 280 °C. Gas chromatographic conditions were as follows: initial oven temperature at 80 °C, raised by 20 °C/min to 200 °C, then by 10 °C/min to 300 °C, and maintained at 300 °C for 3 min. […] Ions at m/z 444 (RESV and piceid), m/z 179 (dihydro-RESV), and m/z 412 (diethylstilbestrol), were selected for the quantitative analysis.

[2] = Urinary recovery of HT, TYR and their metabolites (LC-MS/MS), crossover clinical trial; format: in vivo; conditions: urine 0-6 h, n = 12, mean ± SD
Procedure: (§1) Volunteers received each treatment in a randomized manner. […] The total duration of the study was nine days.
The quantification of urinary levels of HT and TYR free forms and their metabolites was performed using a solid-phase extraction and following the method previously described. The method was capable of detecting the free forms HT, TYR, and HVALc; the sulfate conjugates HT-sulfate, TYR-sulfate, and HT-acetate-sulfate; and the glucuronide conjugates HT-glucuronide, TYR-glucuronide, and HVALc-glucuronide. Shortly thereafter, aliquots of 0.5 mL of the samples were diluted with 0.5 mL of purified water and spiked with 10 µL of internal standard (containing 10 µg/mL of HT-D3, 3-(4-hydroxyphenyl)-1-propanol, 4-(3-hydroxypropylphenyl) glucuronide and HT-1-sulfate) and stabilized with 1 mL of phosphoric acid 4%. Thereafter, samples were submitted to a solid-phase extraction by means of Oasis HLB columns. Samples were loaded into the cartridges, and the cartridges were then washed with 2 mL of purified water. Finally, the compounds of interest were eluted by adding 2 mL of methanol to the cartridges. Subsequently, the methanol was evaporated until dry using nitrogen (29 °C, 10–15 psi). Finally, the dried extracts were reconstituted in 100 µL of a mixture of mobile phases (91% A/9% B v/v), transferred into HPLC vials, and analyzed by LC-MS/MS.
Identification and quantification of HT and TYR metabolites was performed using an Agilent 1200 series HPLC system (Agilent technologies, Santa Clara, California, CA, USA) coupled to a triple quadrupole (6410 Triple Quad LC/MS; Agilent) mass spectrometer with an electrospray interface. The chromatographic separation was carried out with an Acquity UPLC® BEH C18 column with a 1.7 μm particle size, 3 mm × 100 mm (Waters, Milford, MA, USA) maintained at 40 °C. The composition of mobile phase A was 0.01% of ammonium acetate (pH 5) in water; mobile phase B was pure methanol. The injection volume was 10 μL and the ion source operated in negative ionization mode.

[3] = Ethyl glucuronide quantification in urine (LC-MS/MS); format: in vivo, humans
Procedure: as §1
Ethyl glucuronide concentration in urine was used as a marker of alcohol abstinence and compliance with the dietary recommendations before each intervention. To determine urinary concentrations of ethyl glucuronide, aliquots of 30 μL were mixed with 10 μL of IS mix solution (containing 10 μg/mL ethyl-glucuronide-d5 and ethyl-sulfate-d5) and 110 μL of 0.1% formic acid solution in water. The identification and the quantification of ethyl glucuronide were carried out using an Agilent 1200 series HPLC system (Agilent technologies) (Santa Clara, California, CA, USA) coupled to a triple quadrupole (6410 Triple Quad LC/MS; Agilent) mass spectrometer with an electrospray interface. To perform the chromatographic separation, an Acquity UPLC® BEH C18 column with a 1.7 μm particle size, 3 mm × 100 mm (Waters, Milford, MA, USA) was used. The composition of mobile phase A was 0.1% (v/v) formic acid in water, and mobile phase B was 0.1% (v/v) formic acid in acetonitrile.

[4] = baseline urine (-2 to 0 h), after washout diet

SMILES | RESV urinary recovery from 0 to 6 h ([1]; after 25 mL EVOO + 150 mL RW) | RESV urinary recovery from 0 to 6 h ([1]; after single dose 25 mL EVOO) [nmol] | RESV urinary recovery from 0 to 6 h ([1]; after single dose 150 mL RW) | Urinary recovery from 0 to 6 h (single free form or metabolite) ([2]; after 25 mL EVOO + 150 mL RW) | Urinary recovery from 0 to 6 h (single free form or metabolite) ([2]; after single dose 25 mL EVOO) [nmol] | Urinary recovery from 0 to 6 h (single free form or metabolite) ([2]; after single dose 150 mL RW) | further results
Oc1ccc(CCc2cc(O)cc(O)c2)cc1 [Dihydro-RESV, Dihydroresveratrol] | 13.0 ± 8.3 ^aa nmol | 0.0 ± 0.0 | 10.9 ± 7.5 ^aa nmol | – | – | – | RESV urinary recovery from 0 to 6 h ([1]; after 25 mL EVOO + 150 mL RW, listed as dihydro-RESV): 13.0 ± 8.3 nmol; RESV urinary recovery from 0 to 6 h ([1]; after single dose 150 mL RW, listed as dihydro-RESV): 10.9 ± 7.5 nmol
Oc1ccc(C=Cc2cc(O)cc(O)c2)cc1 [c-RESV, 3,4′,5-Trihydroxystilbene] | 83.8 ± 62.6 ^aa nmol | 0.0 ± 0.0 | 72.8 ± 44.3 ^aa nmol | – | – | – | –
OCCc1ccc(O)c(O)c1 [HT, 3,4-dihydroxyphenylethanol] | – | – | – | 386 ± 289 ^bb nmol | 367 ± 221 | 201 ± 173 ^aa nmol | Total urinary recovery from 0 to 6 h (sum of free form and metabolites) ([2]; after 25 mL EVOO + 150 mL RW): 6286 ± 3198 nmol; Total urinary recovery from 0 to 6 h (sum of free form and metabolites) ([2]; after 25 mL EVOO + 150 mL RW, listed as Total HT): 6286 ± 3198 ^aa bb nmol; Total urinary recovery from 0 to 6 h (sum of free form and metabolites) ([2]; after single dose 25 mL EVOO): 3788 ± 1751 nmol; Total urinary recovery from 0 to 6 h (sum of free form and metabolites) ([2]; after single dose 150 mL RW): 2308 ± 847 nmol; Total urinary recovery from 0 to 6 h (sum of free form and metabolites) ([2]; after single dose 150 mL RW, listed as Total HT): 2308 ± 847 ^a nmol
COc1cc(CCO)ccc1O [Free HVALc, homovanillyl alcohol] | – | – | – | 247 ± 205 ^bb nmol | 269 ± 145 | 110 ± 118 ^aa nmol | –
OCCc1ccc(O)cc1 [TYR, tyrosol] | – | – | – | 460 ± 490 ^b nmol | 404 ± 346 | 132 ± 114 ^aa nmol | Total urinary recovery from 0 to 6 h (sum of free form and metabolites) ([2]; after 25 mL EVOO + 150 mL RW): 4925 ± 1751 nmol; Total urinary recovery from 0 to 6 h (sum of free form and metabolites) ([2]; after 25 mL EVOO + 150 mL RW, listed as Total TYR): 4925 ± 3993 ^aa b nmol; Total urinary recovery from 0 to 6 h (sum of free form and metabolites) ([2]; after single dose 25 mL EVOO): 2180 ± 1917 nmol; Total urinary recovery from 0 to 6 h (sum of free form and metabolites) ([2]; after single dose 150 mL RW): 2567 ± 1468 nmol
Oc1ccc(C=Cc2cc(O)cc(O)c2)cc1 [t-RESV, 3,4′,5-Trihydroxystilbene] | 61.7 ± 42.4 nmol and 61.7 ± 42.4 ^aa nmol | 0.0 ± 0.0 | 59.2 ± 28.7 nmol and 59.2 ± 28.7 ^aa nmol | – | – | – | –
CCO[C@@H]1O[C@H](C(=O)O)[C@@H](O)[C@H](O)[C@H]1O [Ethyl glucuronide] | – | – | – | – | – | – | Ethyl glucuronide recovery in urine ([3]; after EVOO (25 mL)): undetectable; Ethyl glucuronide recovery in urine ([3]; after RW + EVOO intervention): 19.3 ± 7.6 µmols; Ethyl glucuronide recovery in urine ([3]; after RW intervention (150 mL)): 19.0 ± 9.5 µmols; Ethyl glucuronide in urine at baseline [3, 4]: undetectable
Oc1ccc(C=Cc2cc(O)cc(O)c2)cc1 [RESV, 3,4′,5-Trihydroxystilbene] | – | – | – | – | – | – | RESV in baseline urine samples [1, 4]: no RESV was observed
